Experiments:
[1] = test system: CYP26; parameters: method as in Sonneveld et al, 1998; conditions: ref Sonneveld et al, 1998; cited from earlier work
[2] = test system: UM-SCC-35; assay: Retinoid metabolism / turnover rate, HPLC; conditions: for Metabolites Pellet: UM-SCC-35 cell pellet
Excerpt: (§1) Retinoic acid is an active metabolite of retinol (ROL, vitamin A) that plays an important role in growth and differentiation of a variety of cell types (Gudas et al, 1994). […] This is a whitish and reddish plaque in the epithe- lial lining in the oral cavity that have a relatively high risk to become malignant. […] One impor- tant route of ATRA metabolism consists of hydroxylation at posi- tion 4 of the cyclohexenyl ring to form 4-hydroxy-RA, which is readily oxidized to 4-oxo-RA. Other metabolic pathways of ATRA include isomerization, decarboxylation and glucuronidation processes (Rockley et al, 1980; Roberts et al, 1980; Sass et al, 1994). In vitro, 4-hydroxylation of ATRA is mediated by a cytochrome P450 (CYP)-dependent mono-oxogenase system that requires NAPDH and oxygen (Roberts et al, 1980). The present study was undertaken to investigate to what extent a panel of retinoids, including 13cRA, is able to inhibit growth of HNSCC cells and cultures of normal oral keratinocytes (OKC). […] After binding of retinoids to retinoic acid receptors (RARs and RXRs) dimers are formed that are able to regulate the expression of genes involved in growth and differentiation. We compared the metabolism and level of growth inhibition of 13cRA with that of ATRA, 9cRA and retinol in four HNSCC cell lines and normal oral keratinocyte cultures (OKC).

[3] = test system: UM-SCC-14C; assay: Retinoid metabolism / turnover rate, HPLC; parameters: Metabolites Medium: dose or concentration left out as unconfirmed; conditions: for Metabolites Medium: UM-SCC-14C medium; for Metabolism (turnover rate) Mean: 24 h
Excerpt: as §1

[4] = test system: UM-SCC-35R; assay: Retinoid metabolism / turnover rate, HPLC; parameters: Metabolites Medium: dose or concentration left out as unconfirmed; conditions: for Metabolism (turnover rate) Mean: 24 h
Excerpt: as §1

[5] = test system: UM-SCC-22A; assay: Retinoid metabolism / turnover rate, HPLC; parameters: Metabolites Medium: dose or concentration left out as unconfirmed; conditions: for Metabolites Medium: UM-SCC-22A medium; for Metabolism (turnover rate) Mean: 24 h
Excerpt: as §1

[6] = test system: normal oral keratinocyte cultures (OKC); assay: Retinoid metabolism / turnover rate, HPLC; parameters: Metabolites Medium: dose or concentration left out as unconfirmed
Excerpt: as §1

[7] = test system: oral leukoplakia; conditions: ref Koch, 1978; cited from earlier work
[8] = 72 h exposure, 1 mM retinoid, HPLC
[9] = OKC, exposed, decrease in medium and cells between 4 and 24 h

| Structure (SMILES) | Metabolism by CYP26 [1] | Metabolites Pellet [2, 8] | Metabolites Medium ([3]; 72 h exposure, HPLC) | Metabolites Medium ([5]; 72 h exposure, HPLC) | Metabolism (turnover rate) Mean [6, 9] | Metabolism (turnover rate) Mean ([2]; human, 24 h, 1 µM) | Isomerization to other RA isomers ([3]; human, 1 µM) | Metabolism (turnover rate) Mean ([3]; human, 1 µM) | Metabolism (turnover rate) Mean ([4]; human, 1 µM) | Isomerization to other RA isomers ([5]; human, 1 µM) | Metabolism (turnover rate) Mean ([5]; human, 1 µM) | Isomerization to other RA isomers ([6]; human, 1 µM) | Metabolism (turnover rate) Mean ([6]; human, 24 h, 1 µM) | other results |
| --- | --- | --- | --- | --- | --- | --- | --- | --- | --- | --- | --- | --- | --- | --- |
| CC1=C(/C=C/C(C)=C\C=C\C(C)=C\C(=O)O)C(C)(C)CCC1 [9cRA, 9-cis-RA] | can not metabolize | b (between 10 and 15 min) | a,b | a,b | 12.0 pmol per mg protein per hour | – | – | – | – | – | – | – | – | Metabolites Medium ([2]; UM-SCC-35 medium, 72 h exposure, 1 mM retinoid, HPLC): a,b,c; Isomerization to other RA isomers ([3]; UM-SCC-14C, ATRA to 13cRA, 13cRA to ATRA, 9cRA to ATRA and 13cRA): up to 5%; Metabolites Pellet ([4]; UM-SCC-35R cell pellet, 72 h exposure, HPLC): b (between 10 and 15 min); Metabolites Medium ([4]; UM-SCC-35R medium, 72 h exposure, HPLC): a,b; Isomerization to other RA isomers ([5]; UM-SCC-22A, ATRA to 13cRA, 13cRA to ATRA, 9cRA to ATRA and 13cRA): up to 5%; Isomerization to other RA isomers ([6]; OKC, ATRA to 13cRA, 13cRA to ATRA, 9cRA to ATRA and 13cRA): up to 5% |
| CC1=C(/C=C/C(C)=C/C=C/C(C)=C\C(=O)O)C(C)(C)CCC1 [13cRA, 13-cis-retinoic acid] | can not metabolize | – | – | – | – | 949.5 pmol per mg protein per hour | up to 10% | 78.7 pmol per mg protein per hour | 6.9 pmol per mg protein per hour | up to 10% | 154.1 pmol per mg protein per hour | up to 10% | 38.8 pmol per mg protein per hour | Metabolites Pellet ([3]; human, 72 h, 1 µM): d2; Metabolites Pellet ([4]; human, 72 h, 1 µM): b,d2; Metabolites Pellet ([5]; human, 72 h, 1 µM): d2; Metabolites Pellet ([6]; human, 72 h, 1 µM): d2 |
| CC1=C(/C=C/C(C)=C/C=C/C(C)=C/C(=O)O)C(C)(C)CCC1 [ATRA, all-trans-retinoic acid] | highly substrate (ATRA) specific | – | – | – | – | 1,016.0 pmol per mg protein per hour | up to 10% | 13.3 pmol per mg protein per hour | 52.7 pmol per mg protein per hour | up to 10% | 104.8 pmol per mg protein per hour | up to 10% | 14.8 pmol per mg protein per hour | Major metabolite ([2]; human, 24 h, 1 µM): 4-OH-RA; Proportion of leukoplakia patients in whom active [7]: 59% |
| CC1=C(/C=C/C(C)=C/C=C/C(C)=C/CO)C(C)(C)CCC1 [ROL, retinol] | – | c1 | d1 | d1 | 98.7 pmol per mg protein per hour | – | – | – | – | – | – | – | – | Formation of other retinoids after exposure ([2]; UM-SCC-35): no or very small amounts of other retinoids; Formation of ATRA after exposure ([3]; UM-SCC-14C): relatively high formation of ATRA; Metabolites Pellet ([3]; UM-SCC-14C cell pellet, 72 h exposure, HPLC): d1; Formation of other retinoids after exposure ([4]; UM-SCC-35R): no or very small amounts of other retinoids; Metabolites Pellet ([5]; UM-SCC-22A cell pellet, 72 h exposure, HPLC): d1; Metabolites Pellet ([6]; OKC cell pellet, 72 h exposure, HPLC): d1; Metabolites Medium ([6]; OKC medium, 72 h exposure, HPLC): d1 |
